Test results: paper PMC6060961, “Synthesis of unsymmetrical disulfanes bearing 1,2,4-triazine scaffold and their in vitro screening towards anti-breast cancer activity” (Monatshefte Fur Chemie, 2018)
Like-named read-outs stand apart in the source and are kept apart here.

Columns and labels:
[1] = test system: human breast cancer cell line (MCF-7 and MDA-MB-231); set-up: method as in PMID 26133068; details: cell line not specified (MCF-7 and MDA-MB-231 tested); cited from earlier work
[2] = test system: MCF-7 human breast cancer cells; assay: Cell viability (MTT) assay, MCF-7; assay type: cell-based
Procedure: (§1) The viability of MCF-7 breast cancer cells was measured by the method of Carmichael using 3-(4,5-dimethylthiazol-2-yl)-2,5-diphenyltetrazolium (Table 2). In terms of reduction in cell viability, the compounds rank in MCF-7 cells in the order chlorambucil > 4j > 4i > 4h > 4n > 4k > 4l > 4a > 4g > 4b–4f.
(§2) Cultured normal human skin fibroblasts and MCF-7 human breast cancer cells were maintained in DMEM supplemented with 10% fetal bovine serum (FBS), 50 U/cm^3 penicillin, and 50 μg/cm^3 streptomycin at 37 °C. Cells were cultured in Costar flasks and subconfluent cells were detached with 0.05% trypsin and 0.02% EDTA in calcium-free phosphate-buffered saline, counted in hemocytometers, and plated at 5 × 10^5 cells per well of 6-well plates (Nunc) in 2 cm^3 of growth medium (DMEM without phenol red with 10% CPSR1). Cells reached about 80% of confluency at day 3, and in most cases, such cells were used for the assays.
(§3) The assay was performed according to the method of Carmichael using 3-(4,5-dimethylthiazole-2-yl)-2,5-diphenyltetrazolium bromide (MTT). Confluent cells cultured for 24 h with various concentrations of studied compounds in 6-well plates were washed three times with PBS and then incubated for 4 h in 1 cm^3 of MTT solution (0.5 mg/cm^3 of PBS) at 37 °C in 5% CO2 in an incubator. The medium was removed and 1 cm^3 of […] HCl in absolute isopropanol was added to the cells attached. Absorbance of converted dye in the living cells was measured at a wavelength of 570 nm. Cell viability of breast cancer cells cultured in the presence of ligands was calculated as percentage of controlled cells.

[3] = test system: Fibroblasts; assay: DNA synthesis assay ([3H]-thymidine incorporation), fibroblasts; assay type: cell-based, human; details: read-out: IC50 inhibition of [3H]-thymidine incorporation into DNA
[4] = test system: MCF-7 breast cancer cells; assay: DNA synthesis assay ([3H]-thymidine incorporation), MCF-7; assay type: cell-based, human
Procedure: We studied the effect of compounds 4a–4n and chlorambucil on DNA synthesis in MCF-7 breast cancer cells (Table 3).
as §2
MCF-7 cells were seeded in 6-well plates and were incubated with varying concentrations of […] or chlorambucil and 0.5 μCi of [^3H]-thymidine for 24 h at 37 °C [51]. The cells were then harvested by trypsinization, washed with cold phosphate-buffered saline, and centrifuged for 10 min at 1500 g several times (4–5) until the dpm in the washes were similar to the reagent control. Radioactivity was determined by liquid scintillation counting. [^3H]-thymidine uptake was expressed as dpm/well.

[5] = Cell viability (MTT) assay, fibroblasts; assay type: cell-based, human
Procedure: as §1, §2, §3

[6] = test system: normal human skin fibroblasts; assay: Cell viability (MTT) assay, fibroblasts; assay type: cell-based
Procedure: as §1, §2, §3

[7] = Homo sapiens, MCF7, 24 h, read-out: IC50 cytotoxicity (cell viability, MTT)
[8] = Homo sapiens, Fibroblast, Fibroblasts, 24 h, mean ± SD of four independent experiments
[9] = Homo sapiens, MCF7, MCF-7 cells, 24 h, mean ± SD of four independent experiments, read-out: IC50 inhibition of [3H]-thymidine incorporation into DNA
[10] = Fibroblasts, 24 h, mean ± SD of four independent experiments
[11] = MCF-7 cells, 24 h, mean ± SD of four independent experiments, read-out: IC50 inhibition of [3H]-thymidine incorporation into DNA

IC50 [4, 9] [µM]	Compound	IC50 [2, 7] [µM]	IC50 [3, 8] [µM]	IC50 at 24 h ([5]; human) [µM]	other results
–	c1ccc(-c2nnc(SSc3nnc(-c4ccccc4)c(-c4ccccc4)n3)nc2-c2ccccc2)cc1 [5,5′,6,6′-tetraphenylbis(1,2,4-triazin-3-yl)disulfane]	–	–	–	IC50 [1]: 25 µM
188 ± 2	CC(C)SSc1nnc(-c2ccccc2)c(-c2ccccc2)n1 [Compound 4a, 5,6-Diphenyl-1,2,4-triazine-3-yl isopropyl disulfide]	190 ± 2	> 200	> 200	–
83 ± 1	Clc1ccc(SSc2nnc(-c3ccccc3)c(-c3ccccc3)n2)cc1 [Compound 4k, 5,6-Diphenyl-1,2,4-triazine-3-yl 4-chlorophenyl disulfide]	121 ± 2	> 200	> 200	–
59 ± 2	COc1ccc(SSc2nnc(-c3ccccc3)c(-c3ccccc3)n2)cc1 [Compound 4j, 5,6-Diphenyl-1,2,4-triazine-3-yl 4-methoxyphenyl disulfide]	102 ± 2	> 200	> 200	–
60 ± 2	Cc1ccc(SSc2nnc(-c3ccccc3)c(-c3ccccc3)n2)cc1 [Compound 4i, 5,6-Diphenyl-1,2,4-triazine-3-yl p-tolyl disulfide]	108 ± 1	> 200	> 200	–
> 200	CCCCCCCCCCCCSSc1nnc(-c2ccccc2)c(-c2ccccc2)n1 [Compound 4f, 5,6-Diphenyl-1,2,4-triazine-3-yl n-dodecyl disulfide]	> 200	> 200	> 200	–
–	O=C(O)CCCc1ccc(N(CCCl)CCCl)cc1 [Chlorambucil, reference compound]	97 ± 2	–	–	IC50 ([3]; Homo sapiens, Fibroblast): 120 ± 1 µM; IC50 ([4]; Homo sapiens, MCF7, read-out: IC50 inhibition of [3H]-thymidine incorporation into DNA): 47 ± 2 µM; IC50 at 24 h ([5]; normal human skin fibroblasts, 24 h, mean ± SD of four independent experiments, read-out: IC50 cytotoxicity (cell viability, MTT)): 150 ± 1 µM
68 ± 2	c1ccc(SSc2nnc(-c3ccccc3)c(-c3ccccc3)n2)cc1 [Compound 4h, 5,6-Diphenyl-1,2,4-triazine-3-yl phenyl disulfide]	115 ± 2	> 200	> 200	–
–	5,6-Diphenyl-1,2,4-triazine-3-yl tert-butyl disulfide [Compound 4d]	–	–	–	IC50 [2]: > 200 µM; IC50 [3, 10]: > 200 µM; IC50 [4, 11]: > 200 µM; IC50 [6]: > 200 µM
142 ± 1	O=[N+]([O-])c1ccc(SSc2nnc(-c3ccccc3)c(-c3ccccc3)n2)cc1 [Compound 4l, 5,6-Diphenyl-1,2,4-triazine-3-yl 4-nitrophenyl disulfide]	140 ± 1	> 200	> 200	–
> 200	CCCCCSSc1nnc(-c2ccccc2)c(-c2ccccc2)n1 [Compound 4e, 5,6-Diphenyl-1,2,4-triazine-3-yl n-pentyl disulfide]	> 200	> 200	> 200	–
188 ± 1	OCCCCCCCCCCCSSc1nnc(-c2ccccc2)c(-c2ccccc2)n1 [Compound 4g, 5,6-Diphenyl-1,2,4-triazine-3-yl 11-hydroxyundecyl disulfide]	197 ± 1	> 200	> 200	–
75 ± 2	c1ccc(-c2nnc(SSc3nc4ccccc4s3)nc2-c2ccccc2)cc1 [Compound 4n, 5,6-Diphenyl-1,2,4-triazine-3-yl benzothiazol-2-yl disulfide]	119 ± 2	> 200	> 200	–
–	5,6-Diphenyl-1,2,4-triazine-3-yl isobutyl disulfide [Compound 4c]	–	–	–	IC50 [2]: > 200 µM; IC50 [3, 10]: > 200 µM; IC50 [4, 11]: > 200 µM; IC50 [6]: > 200 µM
> 200	CCCCSSc1nnc(-c2ccccc2)c(-c2ccccc2)n1 [Compound 4b, 5,6-Diphenyl-1,2,4-triazine-3-yl n-butyl disulfide]	> 200	> 200	> 200	–
